{"source": "patent US9149038B2", "about": "“4-amino-6-(heterocyclic)picolinates and 6-amino-2-(heterocyclic)pyrimidine-4-carboxylates and their use as herbicides” (Dow AgroSciences LLC, priority 2013, dated 2015)", "test_system": "Direct Seeded Rice and weed species", "experiment": "Postemergence herbicidal activity in direct seeded rice, visual rating after 20-22 days and probit GR20/GR50/GR80/GR90 (Table 14)", "format": "in vivo", "details": "for pest or weed control at 17.5 g/ha / pest or weed control at 35 g/ha / pest or weed control at 70 g/ha: post-emergence, 504 h, postemergence; for pest or weed control at 17.5 g/ha: 17.5 g ai/ha; for pest or weed control at 35 g/ha: 35 g ai/ha; for pest or weed control at 70 g/ha: 70 g ai/ha", "how_it_was_run": "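Rice and weeds grown in loam–sand soil (pH about 8.1) in greenhouse to 2nd–3rd true leaf, then sprayed postemergence at 187 L/ha in acetone/DMSO with 1.25% (v/v) Agri-dex crop oil. Injury rated visually 0–100 after 20-22 days versus untreated plants; GR20, GR50, GR80, GR90 obtained by probit analysis across dose rates.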", "key": {"[1]": {"details": "BRAPP (broadleaf signalgrass, Brachiaria platyphylla), read-out: Visual Growth Reduction (%) 21 Days After Application BRAPP"}, "[2]": {"details": "CYPDI (small-flower flatsedge, Cyperus difformis), read-out: Visual Growth Reduction (%) 21 Days After Application CYPDI"}, "[3]": {"details": "CYPES (yellow nutsedge, Cyperus esculentus), read-out: Visual Growth Reduction (%) 21 Days After Application CYPES"}, "[4]": {"details": "CYPIR (rice flatsedge, Cyperus iria), read-out: Visual Growth Reduction (%) 21 Days After Application CYPIR"}, "[5]": {"details": "DIGSA (large crabgrass, Digitaria sanguinalis), read-out: Visual Growth Reduction (%) 21 Days After Application DIGSA"}, "[6]": {"details": "ECHCG (barnyardgrass, Echinochloa crus-galli), read-out: Visual Growth Reduction (%) 21 Days After Application ECHCG"}, "[7]": {"details": "ECHCO (junglerice, Echinochloa colonum), read-out: Visual Growth Reduction (%) 21 Days After Application ECHCO"}, "[8]": {"details": "LEFCH (Chinese sprangletop, Leptochloa chinensis), read-out: Visual Growth Reduction (%) 21 Days After Application LEFCH"}, "[9]": {"details": "ORYSJ (Oryza sativa, rice crop), read-out: Visual Growth Reduction (%) 21 Days After Application ORYSJ"}, "[10]": {"details": "ORYSK (Oryza sativa, rice crop), read-out: Visual Growth Reduction (%) 21 Days After Application ORYSK"}, "[11]": {"details": "SCPJU (Japanese bulrush, Schoenoplectus juncoides Roxb.), read-out: Visual Growth Reduction (%) 21 Days After Application SCPJU"}, "[12]": {"details": "SEBEX (hemp sesbania, Sesbania exaltata), read-out: Visual Growth Reduction (%) 21 Days After Application SEBEX"}}, "note": "Where two headings read alike, the source gives them in different places."}
{"smiles": "Nc1c(F)c(-c2ccc3c(c2F)OC(F)(F)O3)nc(C(=O)O)c1Cl", "note": "[Compound 11]", "values": [{"measurement": "GR50 BRAPP", "setting": "BRAPP (Brachiaria platyphylla), probit analysis, dose for 50 percent growth reduction", "value": 7, "unit": "g ai/ha"}, {"measurement": "GR80 BRAPP", "setting": "BRAPP (Brachiaria platyphylla), probit analysis, dose for 80 percent growth reduction", "value": 16, "unit": "g ai/ha"}, {"measurement": "GR90 BRAPP", "setting": "BRAPP (Brachiaria platyphylla), probit analysis, dose for 90 percent growth reduction", "value": 25, "unit": "g ai/ha"}, {"measurement": "GR50 CYPDI", "setting": "CYPDI (Cyperus difformis), probit analysis, dose for 50 percent growth reduction", "value": 3, "unit": "g ai/ha"}, {"measurement": "GR80 CYPDI", "setting": "CYPDI (Cyperus difformis), probit analysis, dose for 80 percent growth reduction", "value": 7, "unit": "g ai/ha"}, {"measurement": "GR90 CYPDI", "setting": "CYPDI (Cyperus difformis), probit analysis, dose for 90 percent growth reduction", "value": 10, "unit": "g ai/ha"}, {"measurement": "GR50 CYPES", "setting": "CYPES (Cyperus esculentus), probit analysis, dose for 50 percent growth reduction", "value": "<18", "unit": "g ai/ha"}, {"measurement": "GR80 CYPES", "setting": "CYPES (Cyperus esculentus), probit analysis, dose for 80 percent growth reduction", "value": "<18", "unit": "g ai/ha"}, {"measurement": "GR90 CYPES", "setting": "CYPES (Cyperus esculentus), probit analysis, dose for 90 percent growth reduction", "value": "<18", "unit": "g ai/ha"}, {"measurement": "GR50 CYPIR", "setting": "CYPIR (Cyperus iria), probit analysis, dose for 50 percent growth reduction", "value": 5, "unit": "g ai/ha"}, {"measurement": "GR80 CYPIR", "setting": "CYPIR (Cyperus iria), probit analysis, dose for 80 percent growth reduction", "value": 7, "unit": "g ai/ha"}, {"measurement": "GR90 CYPIR", "setting": "CYPIR (Cyperus iria), probit analysis, dose for 90 percent growth reduction", "value": 7, "unit": "g ai/ha"}, {"measurement": "GR50 DIGSA", "setting": "DIGSA (Digitaria sanguinalis), probit analysis, dose for 50 percent growth reduction", "value": 1, "unit": "g ai/ha"}, {"measurement": "GR80 DIGSA", "setting": "DIGSA (Digitaria sanguinalis), probit analysis, dose for 80 percent growth reduction", "value": 4, "unit": "g ai/ha"}, {"measurement": "GR90 DIGSA", "setting": "DIGSA (Digitaria sanguinalis), probit analysis, dose for 90 percent growth reduction", "value": 9, "unit": "g ai/ha"}, {"measurement": "GR50 ECHCG", "setting": "ECHCG (Echinochloa crus-galli), probit analysis, dose for 50 percent growth reduction", "value": 7, "unit": "g ai/ha"}, {"measurement": "GR80 ECHCG", "setting": "ECHCG (Echinochloa crus-galli), probit analysis, dose for 80 percent growth reduction", "value": 15, "unit": "g ai/ha"}, {"measurement": "GR90 ECHCG", "setting": "ECHCG (Echinochloa crus-galli), probit analysis, dose for 90 percent growth reduction", "value": 23, "unit": "g ai/ha"}, {"measurement": "GR50 ECHCO", "setting": "ECHCO (Echinochloa colonum), probit analysis, dose for 50 percent growth reduction", "value": 4, "unit": "g ai/ha"}, {"measurement": "GR80 ECHCO", "setting": "ECHCO (Echinochloa colonum), probit analysis, dose for 80 percent growth reduction", "value": 9, "unit": "g ai/ha"}, {"measurement": "GR90 ECHCO", "setting": "ECHCO (Echinochloa colonum), probit analysis, dose for 90 percent growth reduction", "value": 14, "unit": "g ai/ha"}, {"measurement": "GR50 LEFCH", "setting": "LEFCH (Leptochloa chinensis), probit analysis, dose for 50 percent growth reduction", "value": 23, "unit": "g ai/ha"}, {"measurement": "GR80 LEFCH", "setting": "LEFCH (Leptochloa chinensis), probit analysis, dose for 80 percent growth reduction", "value": 34, "unit": "g ai/ha"}, {"measurement": "GR90 LEFCH", "setting": "LEFCH (Leptochloa chinensis), probit analysis, dose for 90 percent growth reduction", "value": 41, "unit": "g ai/ha"}, {"measurement": "GR20 ORYSJ", "setting": "ORYSJ (Oryza sativa, rice crop), probit analysis, dose for 20 percent growth reduction", "value": 8, "unit": "g ai/ha"}, {"measurement": "GR20 ORYSK", "setting": "ORYSK (Oryza sativa, rice crop), probit analysis, dose for 20 percent growth reduction", "value": 7, "unit": "g ai/ha"}, {"measurement": "GR50 SCPJU", "setting": "SCPJU (Schoenoplectus juncoides Roxb.), probit analysis, dose for 50 percent growth reduction", "value": 0.04, "unit": "g ai/ha"}, {"measurement": "GR80 SCPJU", "setting": "SCPJU (Schoenoplectus juncoides Roxb.), probit analysis, dose for 80 percent growth reduction", "value": 1, "unit": "g ai/ha"}, {"measurement": "GR90 SCPJU", "setting": "SCPJU (Schoenoplectus juncoides Roxb.), probit analysis, dose for 90 percent growth reduction", "value": 2, "unit": "g ai/ha"}, {"measurement": "GR50 SEBEX", "setting": "SEBEX (Sesbania exaltata), probit analysis, dose for 50 percent growth reduction", "value": 3, "unit": "g ai/ha"}, {"measurement": "GR80 SEBEX", "setting": "SEBEX (Sesbania exaltata), probit analysis, dose for 80 percent growth reduction", "value": 7, "unit": "g ai/ha"}, {"measurement": "GR90 SEBEX", "setting": "SEBEX (Sesbania exaltata), probit analysis, dose for 90 percent growth reduction", "value": 10, "unit": "g ai/ha"}, {"measurement": "pest or weed control at 17.5 g/ha", "setting": "[1]", "value": "85 to 94", "unit": "%"}, {"measurement": "pest or weed control at 35 g/ha", "setting": "[1]", "value": "95 to 100", "unit": "%"}, {"measurement": "pest or weed control at 70 g/ha", "setting": "[1]", "value": "95 to 100", "unit": "%"}, {"measurement": "pest or weed control at 17.5 g/ha", "setting": "[2]", "value": "95 to 100", "unit": "%"}, {"measurement": "pest or weed control at 35 g/ha", "setting": "[2]", "value": "95 to 100", "unit": "%"}, {"measurement": "pest or weed control at 70 g/ha", "setting": "[2]", "value": "95 to 100", "unit": "%"}, {"measurement": "pest or weed control at 17.5 g/ha", "setting": "[3]", "value": "85 to 94", "unit": "%"}, {"measurement": "pest or weed control at 35 g/ha", "setting": "[3]", "value": "95 to 100", "unit": "%"}, {"measurement": "pest or weed control at 70 g/ha", "setting": "[3]", "value": "95 to 100", "unit": "%"}, {"measurement": "pest or weed control at 17.5 g/ha", "setting": "[4]", "value": "95 to 100", "unit": "%"}, {"measurement": "pest or weed control at 35 g/ha", "setting": "[4]", "value": "95 to 100", "unit": "%"}, {"measurement": "pest or weed control at 70 g/ha", "setting": "[4]", "value": "95 to 100", "unit": "%"}, {"measurement": "pest or weed control at 17.5 g/ha", "setting": "[5]", "value": "95 to 100", "unit": "%"}, {"measurement": "pest or weed control at 35 g/ha", "setting": "[5]", "value": "95 to 100", "unit": "%"}, {"measurement": "pest or weed control at 70 g/ha", "setting": "[5]", "value": "95 to 100", "unit": "%"}, {"measurement": "pest or weed control at 17.5 g/ha", "setting": "[6]", "value": "95 to 100", "unit": "%"}, {"measurement": "pest or weed control at 35 g/ha", "setting": "[6]", "value": "85 to 94", "unit": "%"}, {"measurement": "pest or weed control at 70 g/ha", "setting": "[6]", "value": "95 to 100", "unit": "%"}, {"measurement": "pest or weed control at 17.5 g/ha", "setting": "[7]", "value": "95 to 100", "unit": "%"}, {"measurement": "pest or weed control at 35 g/ha", "setting": "[7]", "value": "95 to 100", "unit": "%"}, {"measurement": "pest or weed control at 70 g/ha", "setting": "[7]", "value": "95 to 100", "unit": "%"}, {"measurement": "pest or weed control at 17.5 g/ha", "setting": "[8]", "value": "0 to 29", "unit": "%"}, {"measurement": "pest or weed control at 35 g/ha", "setting": "[8]", "value": "95 to 100", "unit": "%"}, {"measurement": "pest or weed control at 70 g/ha", "setting": "[8]", "value": "95 to 100", "unit": "%"}, {"measurement": "pest or weed control at 17.5 g/ha", "setting": "[9]", "value": "30 to 44", "unit": "%"}, {"measurement": "pest or weed control at 35 g/ha", "setting": "[9]", "value": "75 to 84", "unit": "%"}, {"measurement": "pest or weed control at 70 g/ha", "setting": "[9]", "value": "85 to 94", "unit": "%"}, {"measurement": "pest or weed control at 17.5 g/ha", "setting": "[10]", "value": "45 to 59", "unit": "%"}, {"measurement": "pest or weed control at 35 g/ha", "setting": "[10]", "value": "60 to 74", "unit": "%"}, {"measurement": "pest or weed control at 70 g/ha", "setting": "[10]", "value": "75 to 84", "unit": "%"}, {"measurement": "pest or weed control at 17.5 g/ha", "setting": "[11]", "value": "95 to 100", "unit": "%"}, {"measurement": "pest or weed control at 35 g/ha", "setting": "[11]", "value": "95 to 100", "unit": "%"}, {"measurement": "pest or weed control at 70 g/ha", "setting": "[11]", "value": "95 to 100", "unit": "%"}, {"measurement": "pest or weed control at 17.5 g/ha", "setting": "[12]", "value": "95 to 100", "unit": "%"}, {"measurement": "pest or weed control at 35 g/ha", "setting": "[12]", "value": "95 to 100", "unit": "%"}, {"measurement": "pest or weed control at 70 g/ha", "setting": "[12]", "value": "95 to 100", "unit": "%"}]}
